Measurements published in patent US20050148069A1, “IGF-1 instructs multipotent adult CNS neural stem cells to an oligodendroglial lineage” (priority 2003, published 2005).

System: adult hippocampus-derived neural progenitor cells
Assay: in vitro differentiation analysis of neural progenitor cells (immunocytochemistry for lineage markers)
Type: cell-based, rat
Settings: for differentiation of neural progenitor cells into oligodendrocytes: 500 ng/ml; for differentiation of neural progenitor cells into oligodendrocytes / GFAP+ astrocytes: 4 days; for rank order of potency for oligodendrocyte differentiation: different concentrations (20-1000 ng/ml); for GFAP+ astrocytes: each at 500 ng/ml
Experimental: The neural progenitor cells isolated from the hippocampus of female Fischer 344 used in this study have been characterized previously (Gage et al., 1995; Palmer et al., 1997). The whole brain-derived neural stem cells from PIO ICR mice were isolated and cultured according to the methods as described, with slight modifications. Cells were cultured as previously described (Gage et al., 1995; Ray et al., 1993). Cells between passages 10 and 20 were used for in vitro differentiation analyses. To induce differentiation, cells were plated into 4-well chamber slides at a density of 55,000-75,000 cells per well and were allowed to proliferate in N2-supplemented (Invitrogen) DMEM:F12 (Omega Scientific) medium containing 20 ng/ml FGF-2 (PeproTech, Inc.) for 24 hours. FGF-2 was then withdrawn and cells were subsequently treated with differentiation media. […] For IGF-induction experiments, cells were trypsinized, washed with 1× PBS, and plated into insulin-free N2 medium. […] In some cultures, BrdU (2.5 μM, Sigma) was added to label dividing cells, and Q-VD-OPh (2 μM, Enzyme Systems Products) was added to prevent apoptosis.
Cells were fixed with 4% paraformaldehyde, followed by immunocytochemical staining as described (Palmer et al., 1999). Labeled cells were visualized using a Nikon E800 upright microscope or a Nikon E600 inverted microscope (Nikon Inc.) and a Spot RT CCD camera (Diagnostic Instruments Inc.). 4′,6-diamidino-2-phenylindole (DAPI) was used to identify individual cells. Quantification of cell phenotypes was with StereoInvestigator (MicroBrightfield Inc.); for each marker, 500-1000 cells were sampled systematically from standardized fields at 40×magnification. For quantification of live/dead cells, images were taken of cultures live-stained with propidum iodide (1 μg/ml; Molecular Probes) and Hoescht 33342 (1 μg/ml; Sigma) at 10×magnification, and cells were counted using Image-Pro (Media Cybernetics). The following primary antibodies were used: rabbit anti-Tuj1 (1:7500;Covance), mouse anti-RIP (1:25-1:75; Hybridoma Bank); guinea pig anti-GFAP (1:500-1:2500; Advanced Immunochemical, Inc.); rabbit anti-MBP (1:500; Chemicon International Inc.), rat anti-BrdU (1:400; Accurate). Secondary antibodies were all from Jackson ImmunoResearch and used at 1:250 dilution. The detection of BrdU in cultured cells required treatment in 2 N HCL at 37° C. for 30 min (Palmer et al., 1999). All experiments were independently replicated at least 3 times.

CC(C)[C@H](NC(=O)c1ccc2ccccc2n1)C(=O)N[C@@H](CC(=O)O)C(=O)COc1c(F)cccc1F [Q-VD-OPh, reference compound]
effects on proliferation or differentiation (2 μM Q-VD-OPh, 2-day cultures): without obvious effects on proliferation or differentiation | cell survival (DAPI-stained nuclei, persistence of cells) (2 μM Q-VD-OPh, 2-day cultures, insulin-free N2 medium): promoted the majority of the cells to survive | RIP+ differentiation (2 μM Q-VD-OPh, no IGF-I, 2-day cultures, insulin-free N2 medium): approximately 2%

IGF-II: human recombinant IGF-II (R&D Systems)
differentiation of neural progenitor cells into oligodendrocytes: could also promote the preferential differentiation of neural progenitor cells into oligodendrocytes | rank order of potency for oligodendrocyte differentiation: IGF-I>IGF-II>insulin | GFAP+ astrocytes: few to no GFAP+ astrocytes

insulin: insulin (Sigma)
differentiation of neural progenitor cells into oligodendrocytes: could also promote the preferential differentiation of neural progenitor cells into oligodendrocytes | rank order of potency for oligodendrocyte differentiation: IGF-I>IGF-II>insulin | GFAP+ astrocytes: few to no GFAP+ astrocytes
